{"source": "ChEMBL document CHEMBL5257153", "about": "“Oxazolidinones as versatile scaffolds in medicinal chemistry” (RSC Med Chem, 2023)", "key": {"Clostridioides difficile [1]": {"system": "Clostridioides difficile", "assay": "Antibacterial activity against Clostridium difficile ATCC 43596 strain assessed as bacterial growth inhibition incubated for 48 hrs by agar dilution method", "type": "functional"}, "Clostridioides difficile [2]": {"system": "Clostridioides difficile", "assay": "Antibacterial activity against Clostridium difficile NCTC 11223 strain assessed as bacterial growth inhibition incubated for 48 hrs by agar dilution method", "type": "functional"}, "Clostridioides difficile [3]": {"system": "Clostridioides difficile", "assay": "Antibacterial activity against Clostridium difficile ATCC 43255 strain assessed as bacterial growth inhibition incubated for 48 hrs by agar dilution method", "type": "functional"}, "Clostridioides difficile [4]": {"system": "Clostridioides difficile", "assay": "Antibacterial activity against Clostridium difficile NAP1/027/BI-type strain 2009155 assessed as bacterial growth inhibition incubated for 48 hrs by agar dilution method", "type": "functional"}, "Clostridioides difficile [5]": {"system": "Clostridioides difficile", "assay": "Antibacterial activity against Clostridium difficile 2004118 strain assessed as bacterial growth inhibition incubated for 48 hrs by agar dilution method", "type": "functional"}, "Clostridioides difficile [6]": {"system": "Clostridioides difficile", "assay": "In vivo Antibacterial activity against Clostridium difficile infected in hamster assessed as survival at 50 mg/kg, sc relative to control", "type": "functional"}, "Rattus norvegicus": {"species_on_record": "Rattus norvegicus", "assay": "Anticonvulsant activity in rat", "type": "functional"}, "Mus musculus": {"species_on_record": "Mus musculus", "assay": "Anticonvulsant activity in mouse", "type": "functional"}, "[7]": {"assay": "Toxicity in mouse", "type": "organism-based", "conditions": "in vivo"}, "CNE-2": {"system": "CNE-2", "assay": "Anticancer activity against human CNE-2 cells assessed as cell growth inhibition incubated for 48 hrs by MTT assay", "type": "functional, cell-based", "conditions": "CNE-2, 48 h"}, "SK-OV-3": {"system": "SK-OV-3", "assay": "Anticancer activity against human SK-OV-3 cells assessed as cell growth inhibition incubated for 48 hrs by MTT assay", "type": "functional, cell-based", "conditions": "SK-OV-3, 48 h"}, "MGC-803": {"system": "MGC-803", "assay": "Anticancer activity against human MGC-803 cells assessed as cell growth inhibition incubated for 48 hrs by MTT assay", "type": "functional, cell-based", "conditions": "MGC-803, 48 h"}, "NCI-H460": {"system": "NCI-H460", "assay": "Anticancer activity against human NCI-H460 cells assessed as cell growth inhibition incubated for 48 hrs by MTT assay", "type": "functional, cell-based", "conditions": "NCI-H460, 48 h"}, "L02": {"system": "L02", "assay": "Cytotoxicity against human L02 cells assessed as cell growth inhibition incubated for 48 hrs by MTT assay", "type": "functional, cell-based", "conditions": "L02, 48 h"}, "[8]": {"assay": "AUClast in Sprague-Dawley rat at 15 mg/kg, iv by HPLCLC-MS/MS analysis", "type": "ADME, organism-based", "set-up": "dose 15 mg/kg, route iv", "conditions": "in vivo"}, "[9]": {"target": "Aldo-keto reductase family 1 member B1 (Homo sapiens, UniProt P15121)", "assay": "Inhibition of […] (unknown origin)"}, "[10]": {"system": "Mycobacterium tuberculosis", "assay": "Antimycobacterial activity against Mycobacterium tuberculosis H37Rv strain assessed as bacterial growth inhibition incubated for 18 to 24 hrs", "type": "functional", "conditions": "time 18-24 hrs"}, "[11]": {"system": "Mycobacterium tuberculosis", "assay": "Antimycobacterial activity against Mycobacterium tuberculosis H37Rv strain assessed as bacterial growth inhibition incubated for 48 hrs by Microplate amar blue assay", "type": "functional"}, "Metaphire posthuma [12]": {"system": "Metaphire posthuma", "assay": "Anti-helmintic activity at Metaphire posthuma assessed as paralysis induction time", "type": "functional"}, "Metaphire posthuma [13]": {"system": "Metaphire posthuma", "assay": "Anti-helmintic activity at Metaphire posthuma assessed as time of survival", "type": "functional"}, "Kallikrein-6": {"target": "Kallikrein-6 (Homo sapiens, UniProt Q92876)", "assay": "Inhibition of KLK6 (unknown origin)"}, "[14]": {"target": "T1, Acyl-CoA (8-3)-desaturase (Homo sapiens, UniProt O60427)", "assay": "Inhibition of human Delta 5 desaturase (unknown origin) expressed in human HepG2 cells", "type": "cell-based"}, "[15]": {"target": "T1, Acyl-CoA (8-3)-desaturase", "assay": "In vivo inhibition of human Delta 5 desaturase in C57BL/6J mouse at 3 mg/kg, po relative to control", "type": "organism-based"}, "[16]": {"target": "T1, Acyl-CoA (8-3)-desaturase", "assay": "In vivo inhibition of human Delta 5 desaturase in atherosclerosis mouse model at 3 mg/kg, po relative to control", "type": "organism-based"}}}
{"smiles": "CC(=O)NC[C@H]1CN(c2ccc(-c3cnc(-n4cncn4)nc3)c(F)c2)C(=O)O1", "values": [{"measurement": "MIC90", "setting": "Clostridioides difficile [1]", "result": 0.25, "unit": "µg/mL"}, {"measurement": "MIC90", "setting": "Clostridioides difficile [2]", "result": 0.25, "unit": "µg/mL"}, {"measurement": "MIC90", "setting": "Clostridioides difficile [3]", "result": 0.25, "unit": "µg/mL"}, {"measurement": "MIC90", "setting": "Clostridioides difficile [4]", "result": 0.25, "unit": "µg/mL"}, {"measurement": "MIC90", "setting": "Clostridioides difficile [5]", "result": 0.25, "unit": "µg/mL"}, {"measurement": "survival at 50 mg/kg", "setting": "Clostridioides difficile [6]", "result": 100, "unit": "%"}]}
{"smiles": "O=C(NCC(=O)N1CCN(c2ccc(N3C[C@H](Cn4ccnn4)OC3=O)cc2F)CC1)c1cccs1", "values": [{"measurement": "ED50", "setting": "Rattus norvegicus", "result": 34.5, "unit": "mg/kg"}, {"measurement": "ED50", "setting": "Mus musculus", "result": 90, "unit": "mg/kg"}, {"measurement": "TD50", "setting": "[7]", "result": "> 500", "unit": "mg/kg"}]}
{"smiles": "CC(C)c1ccc2c(c1)CCC1[C@](C)(C(=O)OCC3CN(c4ccc(F)cc4)C(=O)O3)CCC[C@]21C", "note": "(some centres not stated)", "values": [{"measurement": "IC50", "setting": "CNE-2", "result": 3.82, "unit": "µM"}, {"measurement": "IC50", "setting": "SK-OV-3", "result": 3.82, "unit": "µM"}, {"measurement": "IC50", "setting": "MGC-803", "result": 3.82, "unit": "µM"}, {"measurement": "IC50", "setting": "NCI-H460", "result": 3.82, "unit": "µM"}, {"measurement": "IC50", "setting": "L02", "result": "> 100", "unit": "µM"}]}
{"smiles": "CN[C@H](CC(C)C)C(=O)N[C@H]1C(=O)N[C@@H](CC(N)=O)C(=O)N[C@H]2C(=O)N[C@H]3C(=O)N[C@H](C(=O)N[C@H](C(=O)O)c4cc(O)cc(O)c4-c4cc3ccc4O)[C@H](O)c3ccc(c(Cl)c3)Oc3cc2cc(c3O[C@@H]2O[C@H](CO)[C@@H](O)[C@H](O)[C@H]2O[C@H]2C[C@](C)(N)[C@H](O)[C@H](C)O2)Oc2ccc(cc2Cl)[C@H]1O", "note": "[VANCOMYCIN]", "values": [{"measurement": "survival at 50 mg/kg", "setting": "Clostridioides difficile [6]", "result": 50, "unit": "%"}]}
{"smiles": "O=C(COP(=O)(O)O)N1CCN(c2ccc(-c3ccc(N4C[C@H](Cn5ccnn5)OC4=O)cc3F)cn2)C=N1", "values": [{"measurement": "AUClast", "setting": "[8]", "result": 5.08, "unit": "mg/h/L"}]}
{"smiles": "COc1ccc(C2CC3(CN(CC(=O)O)C(=O)O3)c3cc(Br)ccc3O2)cc1", "note": "(configuration not stated)", "values": [{"measurement": "IC50", "setting": "[9]", "result": 0.65, "unit": "µM"}]}
{"smiles": "Cc1ncc([N+](=O)[O-])n1CCO", "note": "[METRONIDAZOLE]", "values": [{"measurement": "survival at 50 mg/kg", "setting": "Clostridioides difficile [6]", "result": 0, "unit": "%"}]}
{"smiles": "O=C(NCC(=O)N1CCN(c2ccc(N3C[C@H](Cn4ccnn4)OC3=O)cc2F)CC1)c1ccc([N+](=O)[O-])o1", "values": [{"measurement": "MIC90", "setting": "[10]", "result": 0.9, "unit": "µM"}]}
{"smiles": "O=C1O[C@@H](Cn2ccnn2)CN1c1ccc(N2CCOCC2)c(F)c1", "values": [{"measurement": "MIC90", "setting": "[11]", "result": 1.3, "unit": "µM"}]}
{"smiles": "COc1cc(COc2ccccc2C2(C)CN(CC(=O)O)C(=O)O2)cc(OC)c1OC", "note": "(configuration not stated)", "values": [{"measurement": "IC50", "setting": "[9]", "result": 3.19, "unit": "µM"}]}
{"smiles": "O=C(OC[C@H]1CN(c2ccc(N3CCOCC3)nc2)C(=O)O1)C1CCCCC1", "values": [{"measurement": "Time", "setting": "Metaphire posthuma [12]", "result": 3.6, "unit": "min"}, {"measurement": "Survival", "setting": "Metaphire posthuma [13]", "result": 8.1, "unit": "min"}]}
{"smiles": "COc1ccccc1-c1ccc([C@H](C)Nc2cncc(N3C(=O)OC[C@@H]3C(C)C)n2)cc1", "values": [{"measurement": "IC50", "setting": "Kallikrein-6", "result": 0.00251, "unit": "µM"}]}
{"smiles": "C[C@@H]1[C@@H](c2ccc(F)cc2)OC(=O)N1c1cc(C#N)cc(C#N)c1", "values": [{"measurement": "IC50", "setting": "[14]", "result": 0.0015, "unit": "µM"}, {"measurement": "inhibition", "setting": "[15]", "result": 74, "unit": "%"}, {"measurement": "inhibition", "setting": "[16]", "result": 66, "unit": "%"}]}
